# Data taken from PubChem BioAssay AID1963834 (Molecular Pharmacology Branch, DTP, NCI, 2024).
# System: 873145-292-R-J1-PDC complex spheroid viability
# Assay: Anticancer human tumor 873145-292-R-J1-PDC patient-derived renal clear cell carcinoma cell line growth inhibition [POLQ]
# Settings: for IC50: curve of first compound; for viability, T/C: stronger effect = lower value
# Summary of the method: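 Patient-derived tumour cells were co-cultured with HUVEC and mesenchymal stem cells as multicellular spheroids at 37 °C. They were treated with POLQ inhibitors (novobiocin, ART-558, RP6685) alone or combined with other agents. Top concentrations were at or near clinical Cmax (otherwise 10 microM; SN-38 at 1 microM), decreasing in half-log steps.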
# [1] = second compound 0.0316 µM, first compound 0.0316 µM
# [2] = second compound 0.0316 µM, first compound 0.1 µM
# [3] = second compound 0.0316 µM, first compound 0.316 µM
# [4] = second compound 0.0316 µM, first compound 1 µM
# [5] = second compound 0.1 µM, first compound 0.0316 µM
# [6] = second compound 0.1 µM, first compound 0.1 µM
# [7] = second compound 0.1 µM, first compound 0.316 µM
# [8] = second compound 0.1 µM, first compound 1 µM
# [9] = second compound 0.316 µM, first compound 0.0316 µM
# [10] = second compound 0.316 µM, first compound 0.1 µM
# [11] = second compound 0.316 µM, first compound 0.316 µM
# [12] = second compound 0.316 µM, first compound 1 µM
# [13] = second compound 1 µM, first compound 0.0316 µM
# [14] = second compound 1 µM, first compound 0.1 µM
# [15] = second compound 1 µM, first compound 0.316 µM
# [16] = second compound 1 µM, first compound 1 µM
# [17] = second compound 3.16 µM, first compound 0.0316 µM
# [18] = second compound 3.16 µM, first compound 0.1 µM
# [19] = second compound 3.16 µM, first compound 0.316 µM
# [20] = second compound 3.16 µM, first compound 1 µM
# [21] = second compound 10 µM, first compound 0.0316 µM
# [22] = second compound 10 µM, first compound 0.1 µM
# [23] = second compound 10 µM, first compound 0.316 µM
# [24] = second compound 10 µM, first compound 1 µM
# [25] = second compound 0.0316 µM, first compound 0.00316 µM
# [26] = second compound 0.0316 µM, first compound 0.01 µM
# [27] = second compound 0.1 µM, first compound 0.00316 µM
# [28] = second compound 0.1 µM, first compound 0.01 µM
# [29] = second compound 0.316 µM, first compound 0.00316 µM
# [30] = second compound 0.316 µM, first compound 0.01 µM
# [31] = second compound 1 µM, first compound 0.00316 µM
# [32] = second compound 1 µM, first compound 0.01 µM
# [33] = second compound 3.16 µM, first compound 0.00316 µM
# [34] = second compound 3.16 µM, first compound 0.01 µM
# [35] = second compound 10 µM, first compound 0.00316 µM
# [36] = second compound 10 µM, first compound 0.01 µM
# 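Also: spheroids exposed to compounds for 7 days before viability readout.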
# 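For viability, T/C in this document: luminescence signal used as surrogate for viable cell content; 100% = DMSO vehicle control viability.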
smiles,measurement,setting,value
COc1ccc([C@@H](O)c2cc(-c3ncnc4cc(N5CCOCC5)ccc34)c(F)cc2Cl)nn1 + Cc1cccc(N(C)C(=O)C2C(O)CCN2c2nc(C)cc(C(F)(F)F)c2C#N)c1,IC50,second compound 0.0316 µM,5230 nM
same,IC50,second compound 0.1 µM,7850 nM
same,IC50,second compound 0.316 µM,4080 nM
same,IC50,second compound 1 µM,6450 nM
same,IC50,second compound 3.16 µM,4830 nM
same,IC50,second compound 10 µM,5890 nM
same,"viability, T/C",[1],107%
same,"viability, T/C",[2],92.1%
same,"viability, T/C",[3],81.5%
same,"viability, T/C",[4],66.6%
same,"viability, T/C","second compound 0.0316 µM, first compound 3.16 µM",56.9%
same,"viability, T/C","second compound 0.0316 µM, first compound 10 µM",42.5%
same,"viability, T/C",[5],105%
same,"viability, T/C",[6],95.3%
same,"viability, T/C",[7],75.9%
same,"viability, T/C",[8],73.1%
same,"viability, T/C","second compound 0.1 µM, first compound 3.16 µM",64.7%
same,"viability, T/C","second compound 0.1 µM, first compound 10 µM",44.4%
same,"viability, T/C",[9],96%
same,"viability, T/C",[10],88.5%
same,"viability, T/C",[11],76.3%
same,"viability, T/C",[12],65.2%
same,"viability, T/C","second compound 0.316 µM, first compound 3.16 µM",55.8%
same,"viability, T/C","second compound 0.316 µM, first compound 10 µM",37.5%
same,"viability, T/C",[13],112%
same,"viability, T/C",[14],88.2%
same,"viability, T/C",[15],85.6%
same,"viability, T/C",[16],72.5%
same,"viability, T/C","second compound 1 µM, first compound 3.16 µM",56.1%
same,"viability, T/C","second compound 1 µM, first compound 10 µM",45%
same,"viability, T/C",[17],93.5%
same,"viability, T/C",[18],85.1%
same,"viability, T/C",[19],91%
same,"viability, T/C",[20],71.6%
same,"viability, T/C","second compound 3.16 µM, first compound 3.16 µM",57.4%
same,"viability, T/C","second compound 3.16 µM, first compound 10 µM",39.2%
same,"viability, T/C",[21],96.8%
same,"viability, T/C",[22],82.1%
same,"viability, T/C",[23],80.2%
same,"viability, T/C",[24],71.2%
same,"viability, T/C","second compound 10 µM, first compound 3.16 µM",58.1%
same,"viability, T/C","second compound 10 µM, first compound 10 µM",42.4%
CCc1c2c(nc3ccc(O)cc13)-c1cc3c(c(=O)n1C2)COC(=O)[C@]3(O)CC + Nc1ccc(C#CCN(C(=O)Cc2ncc(C(F)(F)F)cc2C(F)(F)F)c2ccc(F)cc2)nn1,IC50,second compound 0.0316 µM,143 nM
same,IC50,second compound 0.1 µM,66.2 nM
same,IC50,second compound 0.316 µM,119 nM
same,IC50,second compound 1 µM,114 nM
same,IC50,second compound 3.16 µM,79 nM
same,IC50,second compound 10 µM,173 nM
same,"viability, T/C",[25],104%
same,"viability, T/C",[26],99.2%
same,"viability, T/C",[1],62.1%
same,"viability, T/C",[2],59.2%
same,"viability, T/C",[3],44.1%
same,"viability, T/C",[4],36.2%
same,"viability, T/C",[27],106%
same,"viability, T/C",[28],102%
same,"viability, T/C",[5],60%
same,"viability, T/C",[6],48.7%
same,"viability, T/C",[7],50.9%
same,"viability, T/C",[8],30.2%
same,"viability, T/C",[29],114%
same,"viability, T/C",[30],87.7%
same,"viability, T/C",[9],62.2%
same,"viability, T/C",[10],54.5%
same,"viability, T/C",[11],44.5%
same,"viability, T/C",[12],28.9%
same,"viability, T/C",[31],99.8%
same,"viability, T/C",[32],85.2%
same,"viability, T/C",[13],66.4%
same,"viability, T/C",[14],51.5%
same,"viability, T/C",[15],41.7%
same,"viability, T/C",[16],39.9%
same,"viability, T/C",[33],94.5%
same,"viability, T/C",[34],97.8%
same,"viability, T/C",[17],67.6%
same,"viability, T/C",[18],47.9%
same,"viability, T/C",[19],42%
same,"viability, T/C",[20],35.9%
same,"viability, T/C",[35],111%
same,"viability, T/C",[36],94.5%
same,"viability, T/C",[21],66.8%
same,"viability, T/C",[22],55.8%
same,"viability, T/C",[23],47.4%
same,"viability, T/C",[24],34.9%
COc1cccc(OCCCN)c1-c1cc(Nc2cnc(C#N)cn2)n[nH]1 + Cc1cccc(N(C)C(=O)C2C(O)CCN2c2nc(C)cc(C(F)(F)F)c2C#N)c1,IC50,second compound 0.0316 µM,> 1000 nM
same,IC50,second compound 0.1 µM,> 1000 nM
same,IC50,second compound 0.316 µM,> 1000 nM
same,IC50,second compound 1 µM,> 1000 nM
same,IC50,second compound 3.16 µM,> 1000 nM
same,IC50,second compound 10 µM,> 1000 nM
same,"viability, T/C",[25],102%
same,"viability, T/C",[26],111%
same,"viability, T/C",[1],77.8%
same,"viability, T/C",[2],69.7%
same,"viability, T/C",[3],74.8%
same,"viability, T/C",[4],78.3%
same,"viability, T/C",[27],104%
same,"viability, T/C",[28],103%
same,"viability, T/C",[5],65.9%
same,"viability, T/C",[6],73.7%
same,"viability, T/C",[7],66.5%
same,"viability, T/C",[8],82.1%
same,"viability, T/C",[29],95.5%
same,"viability, T/C",[30],91.5%
same,"viability, T/C",[9],72.7%
same,"viability, T/C",[10],73.9%
same,"viability, T/C",[11],75.6%
same,"viability, T/C",[12],83%
same,"viability, T/C",[31],98.2%
same,"viability, T/C",[32],90.3%
same,"viability, T/C",[13],77.5%
same,"viability, T/C",[14],70.8%
same,"viability, T/C",[15],81.8%
same,"viability, T/C",[16],79.1%
same,"viability, T/C",[33],98.9%
same,"viability, T/C",[34],91.7%
same,"viability, T/C",[17],84.7%
same,"viability, T/C",[18],82.3%
same,"viability, T/C",[19],67.7%
same,"viability, T/C",[20],77.3%
same,"viability, T/C",[35],88.1%
same,"viability, T/C",[36],93.6%
same,"viability, T/C",[21],91.2%
same,"viability, T/C",[22],74.7%
same,"viability, T/C",[23],88.6%
same,"viability, T/C",[24],91.8%
C=CCn1c(=O)c2cnc(Nc3ccc(N4CCN(C)CC4)cc3)nc2n1-c1cccc(C(C)(C)O)n1 + COC1C(OC(N)=O)C(O)C(Oc2ccc3c(O)c(NC(=O)c4ccc(O)c(CC=C(C)C)c4)c(=O)oc3c2C)OC1(C)C,IC50,second compound 0.0316 µM,> 1000 nM
same,IC50,second compound 0.1 µM,> 1000 nM
same,IC50,second compound 0.316 µM,> 1000 nM
same,IC50,second compound 1 µM,> 1000 nM
same,IC50,second compound 3.16 µM,> 1000 nM
same,IC50,second compound 10 µM,> 1000 nM
same,"viability, T/C",[25],98.9%
same,"viability, T/C",[26],109%
same,"viability, T/C",[1],89.8%
same,"viability, T/C",[2],85.5%
same,"viability, T/C",[3],90.7%
same,"viability, T/C",[4],70.1%
same,"viability, T/C",[27],102%
same,"viability, T/C",[28],97.6%
same,"viability, T/C",[5],100%
same,"viability, T/C",[6],95.5%
same,"viability, T/C",[7],84.9%
same,"viability, T/C",[8],69.9%
same,"viability, T/C",[29],100%
same,"viability, T/C",[30],109%
same,"viability, T/C",[9],96%
same,"viability, T/C",[10],97.7%
same,"viability, T/C",[11],83.5%
same,"viability, T/C",[12],74.5%
same,"viability, T/C",[31],98.8%
same,"viability, T/C",[32],96%
same,"viability, T/C",[13],99.6%
same,"viability, T/C",[14],83.2%
same,"viability, T/C",[15],94.6%
same,"viability, T/C",[16],63.1%
same,"viability, T/C",[33],100%
same,"viability, T/C",[34],98.8%
same,"viability, T/C",[17],89.5%
same,"viability, T/C",[18],89.5%
same,"viability, T/C",[19],88.3%
same,"viability, T/C",[20],75.7%
same,"viability, T/C",[35],100%
same,"viability, T/C",[36],92.1%
same,"viability, T/C",[21],101%
same,"viability, T/C",[22],96.8%
same,"viability, T/C",[23],76.5%
same,"viability, T/C",[24],72%
